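Exposure lasted 48 hours, with cells grown in 96-well plates and compounds tested at five concentrations. GI50 marks 50% less growth.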 The source made the active and inactive calls. No stated cut-off is given here; in the data, active = GI50 up to about 1.1 µM and inactive = higher.
Legend:
Assay in all cases: NCI-60 cell line screen, 48 h
NCI-H460 = test system: NCI-H460
Malme-3M = test system: Malme-3M
HOP-62 = test system: HOP-62
KM12 = test system: KM12
IGROV-1 = test system: IGROV-1
CAKI-1 = test system: CAKI-1
OVCAR-8 = test system: OVCAR-8
ACHN = test system: ACHN
A549 = test system: A549
HT-29 = test system: HT-29
SNB-19 = test system: SNB-19
M14 = test system: M14
HCT-116 = test system: HCT-116
SF-539 = test system: SF-539
HOP-92 = test system: HOP-92
SR = test system: SR

Measured: GI50

COc1ccc(C=C2C(=O)OC(C)(C)OC2=O)cc1OC
inactive: NCI-H460 > 100 µM | Malme-3M > 100 µM | HOP-62 > 100 µM | KM12 > 100 µM | IGROV-1 > 100 µM | CAKI-1 > 100 µM | OVCAR-8 > 100 µM | ACHN > 100 µM | A549 > 100 µM | HT-29 > 100 µM | SNB-19 > 100 µM | M14 > 100 µM

Cc1ccc(NC(=O)C(=O)Cc2nc3ccccc3o2)c(C)c1
inactive: NCI-H460 > 100 µM | HCT-116 > 100 µM | Malme-3M > 100 µM | HOP-62 > 100 µM | KM12 > 100 µM | SF-539 > 100 µM | IGROV-1 > 100 µM | CAKI-1 > 100 µM | OVCAR-8 > 100 µM | HOP-92 > 100 µM | ACHN > 100 µM | A549 > 100 µM | HT-29 > 100 µM | SNB-19 > 100 µM | M14 > 100 µM

O=c1/c(=C/c2c(O)ccc3ccccc23)sc2nc3ccccc3n12
inactive: NCI-H460 > 100 µM | HCT-116 > 100 µM | Malme-3M > 100 µM | HOP-62 > 100 µM | KM12 > 100 µM | SF-539 > 100 µM | IGROV-1 > 100 µM | CAKI-1 > 100 µM | OVCAR-8 > 100 µM | HOP-92 > 100 µM | ACHN > 100 µM | A549 > 100 µM | HT-29 > 100 µM | SNB-19 > 100 µM | M14 > 100 µM

O=[PH](O)c1ccsc1
inactive: NCI-H460 > 100 µM | HCT-116 > 100 µM | HOP-62 > 100 µM | SF-539 > 100 µM | IGROV-1 > 100 µM | CAKI-1 52.1 µM | OVCAR-8 > 100 µM | HOP-92 86.5 µM | ACHN > 100 µM | A549 > 100 µM | HT-29 55 µM | M14 > 100 µM

COc1ccc(/C=C/CN(C)CCc2ccccc2)cc1OC
inactive: HCT-116 26.4 µM | Malme-3M 62.4 µM | KM12 > 100 µM | IGROV-1 > 100 µM | OVCAR-8 > 100 µM | HOP-92 4.89 µM | ACHN > 100 µM | A549 > 100 µM | HT-29 33.5 µM | SNB-19 > 100 µM

O=C(CCc1n[nH]c(=S)o1)Nc1cc(Cl)c(Cl)cc1Cl
inactive: NCI-H460 46.6 µM | HCT-116 15.9 µM | Malme-3M > 100 µM | HOP-62 50.8 µM | KM12 87.9 µM | SF-539 52.7 µM | IGROV-1 34.6 µM | CAKI-1 27.2 µM | OVCAR-8 51.2 µM | HOP-92 48.8 µM | ACHN 40.5 µM | A549 67.8 µM | HT-29 25.8 µM | SNB-19 > 100 µM | M14 83.6 µM

O=C1CCC2CCc3cccc4oc1c2c34 (centres undefined)
inactive: NCI-H460 > 100 µM | HCT-116 > 100 µM | HOP-62 > 100 µM | SF-539 > 100 µM | IGROV-1 > 100 µM | CAKI-1 > 100 µM | OVCAR-8 > 100 µM | HOP-92 75.5 µM | ACHN > 100 µM | A549 > 100 µM | HT-29 > 100 µM | SNB-19 > 100 µM | M14 > 100 µM

Cc1ccc(S(=O)(=O)n2c(-c3ccccc3)c(-c3ccccc3)c3ccccc32)cc1
inactive: NCI-H460 > 100 µM | HCT-116 > 100 µM | Malme-3M > 100 µM | HOP-62 > 100 µM | KM12 > 100 µM | SF-539 > 100 µM | IGROV-1 > 100 µM | SR 7.31 µM | OVCAR-8 > 100 µM | HOP-92 3.08 µM | ACHN > 100 µM | A549 > 100 µM | HT-29 > 100 µM | SNB-19 > 100 µM | M14 > 100 µM

CCOc1cc(/C=C/C=C/C=C/c2ccc(N(C)C)cc2)[s+]c2ccccc12
inactive: NCI-H460 46.9 µM | HCT-116 17.7 µM | Malme-3M 22.9 µM | HOP-62 95.5 µM | KM12 10.1 µM | SF-539 18.2 µM | IGROV-1 37.5 µM | CAKI-1 26.5 µM | OVCAR-8 27.6 µM | HOP-92 25.1 µM | ACHN 35.6 µM | A549 21 µM | HT-29 28.7 µM | SNB-19 24.1 µM | M14 19.7 µM

COCCNC(=O)C1C(=O)C(=O)N(CCOC)C1=O (centres undefined)
inactive: HCT-116 > 100 µM | Malme-3M > 100 µM | HOP-62 > 100 µM | SF-539 > 100 µM | IGROV-1 > 100 µM | SR > 100 µM | CAKI-1 > 100 µM | OVCAR-8 > 100 µM | HOP-92 > 100 µM | ACHN > 100 µM | A549 > 100 µM | HT-29 > 100 µM | SNB-19 > 100 µM | M14 > 100 µM

CCOC(=O)C1Sc2ccccc2N=C1C (centres undefined)
inactive: NCI-H460 > 100 µM | HCT-116 > 100 µM | Malme-3M > 100 µM | HOP-62 > 100 µM | KM12 > 100 µM | SF-539 > 100 µM | IGROV-1 > 100 µM | SR > 100 µM | OVCAR-8 > 100 µM | HOP-92 > 100 µM | ACHN > 100 µM | A549 > 100 µM | HT-29 > 100 µM | SNB-19 > 100 µM

COC(=O)C(=O)C(C(=O)OC)C(=O)C(=O)Nc1cc(Cl)c(C)cc1S(=O)(=O)O (centres undefined)
inactive: NCI-H460 > 100 µM | HCT-116 > 100 µM | Malme-3M > 100 µM | HOP-62 > 100 µM | KM12 > 100 µM | SF-539 > 100 µM | IGROV-1 > 100 µM | SR > 100 µM | CAKI-1 > 100 µM | OVCAR-8 > 100 µM | ACHN > 100 µM | A549 > 100 µM | HT-29 > 100 µM | SNB-19 > 100 µM | M14 > 100 µM

COc1cc2c(cc1O)[C@H](C)C(c1ccccc1OC)O2 (some centres undefined)
inactive: NCI-H460 2.08 µM | HCT-116 3.86 µM | Malme-3M 4.14 µM | KM12 3.87 µM | SF-539 5.11 µM | IGROV-1 5.24 µM | CAKI-1 5.98 µM | OVCAR-8 10.3 µM | HOP-92 8.2 µM | ACHN 4.34 µM | A549 5.33 µM | HT-29 6.7 µM | SNB-19 3.98 µM | M14 3.45 µM

CCCN(CCC)C(=O)Cc1c2n(c3ccccc13)CCCc1ccccc1-2
inactive: NCI-H460 15.6 µM | HCT-116 13.5 µM | Malme-3M 13.9 µM | HOP-62 16.4 µM | KM12 12.6 µM | SF-539 14.9 µM | SR 5.21 µM | CAKI-1 14.8 µM | OVCAR-8 16.3 µM | HOP-92 4.2 µM | ACHN 12.6 µM | A549 13.8 µM | HT-29 13.2 µM | SNB-19 14.6 µM | M14 13.5 µM

— ChEMBL document CHEMBL1201862, “PubChem BioAssay data set” (2004)
